# In paper PMC9572860, “Antiprotozoal Activity of Azabicyclo-Nonanes Linked to Tetrazole or Sulfonamide Cores” (Molecules, 2022):
# pIC50: −log10 of the molar value. Like-named read-outs stand apart in the source and are kept apart here.
# Legend:
# P. falciparum NF54 = assay: In vitro microplate 3H-hypoxanthine incorporation assay against P. falciparum NF54; format: cell-based, Plasmodium falciparum; conditions: for S.I. = IC50 (Cyt.)/IC50 (P.f. NF54): L-6 cytotoxicity over P.f. NF54; for pIC50: Plasmodium falciparum, NF54 strain sensitive to chloroquine and pyrimethamine, erythrocytic stages, average of four determinations, read-out: P. Falciparum NF54 IC50
# Protocol: (§1) Compounds were tested for their activities against strains of P. falciparum and T. b. rhodesiense via microplate assays. Their cytotoxicity was determined with rat skeletal myoblasts (L-6 cells). Chloroquine and melarsoprol served as standards (Table 1).
# (§2) In vitro activity against erythrocytic stages of P. falciparum was determined using a ^3H-hypoxanthine incorporation assay, using the drug-sensitive NF54 strain [21] or the chloroquine- and pyrimethamine-resistant K1 strain [22]. Compounds were dissolved in DMSO at 10 mg/mL and added to parasite cultures incubated in RPMI 1640 medium without hypoxanthine, supplemented with HEPES (5.94 g/L), NaHCO3 (2.1 g/L), neomycin (100 U/mL), Albumax (5 g/L) and washed human red cells A+ at 2.5% hematocrit (0.3% parasitemia). Serial drug dilutions of 11 three-fold dilution steps covering a range from 100 to 0.002 µg/mL were prepared. The 96-well plates were incubated in a humidified atmosphere at 37 °C; 4% CO2, 3% O2, 93% N2. After 48 h, 0.05 mL of ^3H-hypoxanthine (=0.5 µCi) was added to each well of the plate. The plates were incubated for an additional 24 h under the same conditions. The plates were then harvested with a Betaplate cell harvester (Wallac, Zurich, Switzerland). The red blood cells were transferred onto a glass fiber filter and washed with distilled water. The dried filters were inserted into a plastic foil with 10 mL of scintillation fluid and counted in a Betaplate liquid scintillation counter (Wallac, Zurich, Switzerland). IC50 values were calculated from sigmoidal inhibition curves by linear regression using Microsoft Excel. Chloroquine (Sigma C6628) was used as control.
# [1] = test system: T. b. rhodesiense STIB 900; assay: In vitro microplate resazurin assay against T. brucei rhodesiense; format: cell-based, Trypanosoma brucei rhodesiense; conditions: for S.I. = IC50 (Cyt.)/IC50 (T.b.r.): L-6 cytotoxicity over T.b.r.; for pIC50: Trypanosoma brucei, read-out: T. Brucei Rhodesiense IC50
# Protocol: as §1
# Minimum essential medium (50 µL) supplemented with 25 mM HEPES, 1 g/L additional glucose, 1% MEM nonessential amino acids (100×), 0.2 mM 2-mercaptoethanol, 1 mM Na-pyruvate and 15% heat inactivated horse serum was added to each well of a 96-well microtiter plate. Serial drug dilutions of 11 three-fold dilution steps covering a range from 100 to 0.002 μg/mL were prepared. Then, 4 × 10^3 bloodstream forms of T. b. rhodesiense STIB 900 in 50 µL was added to each well and the plate incubated at 37 °C under a 5% CO2 atmosphere for 70 h. Ten microliters of resazurin solution (resazurin, 12.5 mg in 100 mL double-distilled water) was then added to each well and incubation continued for an additional 2–4 h. The plates were then read with a Spectramax Gemini XS microplate fluorometer (Molecular Devices Cooperation, Sunnyvale, CA, USA) using an excitation wavelength of 536 nm and an emission wavelength of 588 nm. Data were analyzed with the graphic program Softmax Pro (Molecular Devices Cooperation, Sunnyvale, CA, USA), which calculated IC50 values by linear regression and 4-parameter logistic regression from the sigmoidal dose inhibition curves. Melarsoprol (Arsobal Sanofi-Aventis, received from WHO) was used as control.
# [2] = In vitro cytotoxicity with L-6 cells; format: cell-based, rat
# Protocol: as §1
# Assays were performed in 96-well microtiter plates, each well containing 0.1 mL of RPMI 1640 medium supplemented with 1% L-glutamine (200 mM) and 10% fetal bovine serum and 4000 L-6 cells (a primary cell line derived from rat skeletal myoblasts, ATCC CRL-1458™). Serial drug dilutions of 11 three-fold dilution steps covering a range from 100 to 0.002 μg/mL were prepared. After 70 h of incubation, the plates were inspected under an inverted microscope to assure the growth of the controls and sterile conditions. Then, 0.01 mL resazurin solution (resazurin, 12.5 mg in 100 ml double-distilled water) was added to each well and the plates incubated for another 2 h. The plates were read with a Spectramax Gemini XS microplate fluorometer (Molecular Devices Cooperation, Sunnyvale, CA, USA) using an excitation wavelength of 536 nm and an emission wavelength of 588 nm. The IC50 values were calculated by linear regression from the sigmoidal dose inhibition curves using SoftmaxPro software (Molecular Devices Cooperation, Sunnyvale, CA, USA). Podophyllotoxin (Sigma P4405) was used as control.
# P. falciparum K1 = assay: In vitro microplate 3H-hypoxanthine incorporation assay against P. falciparum K1; format: cell-based, Plasmodium falciparum; conditions: for S.I. = IC50 (Cyt.)/IC50 (P.f. K1): L-6 cytotoxicity over P.f. K1; for pIC50: Plasmodium falciparum, K1 strain resistant to chloroquine and pyrimethamine, average of four determinations, read-out: P. Falciparum K1 IC50
# Protocol: as §1, §2
# [3] = STIB 900 bloodstream forms, average of four determinations
pIC50 (P. falciparum K1),Compound,S.I. = IC50 (Cyt.)/IC50 (P.f. NF54) (P. falciparum NF54),pIC50 (P. falciparum NF54),S.I. = IC50 (Cyt.)/IC50 (T.b.r.) [1],"pIC50 [1, 3]",IC50 at 72 h ([2]; rat) [nM],S.I. = IC50 (Cyt.)/IC50 (P.f. K1) (P. falciparum K1),pIC50 [1],"IC50 at 72 h ([2]; rat skeletal myoblasts, average of four determinations, read-out: Cytotox. L-6 Cells IC50) [nM]"
,"CC(C)(C)C(NCCN1CC2[C@H](c3ccccc3)CC(N3CCCCC3)(C[C@H]2c2ccccc2)C1)c1nnnn1C(C)(C)C (mixture of isomers) [Compound 11A, rac-(1R)-1-(1-tert-Butyl-1H-tetrazol-5-yl)-2,2-dimethyl-N-{2-[(6R,9R)-6,9-diphenyl-1-(piperidin-1-yl)-3-azabicyclo[3.2.2]nonan-3-yl]ethyl}propan-1-amine]",6.75,5.53,3.04,5.18,20100,,,
,"CC(C)(C)C(NCCN1CC2[C@@H](c3ccccc3)CC(N3CCCCC3)(C[C@@H]2c2ccccc2)C1)c1nnnn1C(C)(C)C (mixture of isomers) [Compound 11B, rac-(1R)-1-(1-tert-Butyl-1H-tetrazol-5-yl)-2,2-dimethyl-N-{2-[(6S,9S)-6,9-diphenyl-1-(piperidin-1-yl)-3-azabicyclo[3.2.2]nonan-3-yl]ethyl}propan-1-amine]",4.99,5.88,1.34,5.31,6590,,,
,"CC(C)(C)n1nnnc1[C@H](NCCN1CC2C(c3ccccc3)CC(N3CCCCC3)(CC2c2ccccc2)C1)c1ccccc1 (mixture of isomers) [Compound 12A, rac-N-[(1R)-(1-tert-Butyl-1H-tetrazol-5-yl])(phenyl)methyl]-2-[(6R,9R)-6,9-diphenyl-1-(piperidin-1-yl)-3-azabicyclo[3.2.2]nonan-3-yl]ethan-1-amine]",11.2,6.60,1.29,5.66,2830,,,
,"Cc1ccc([C@@H](NCCN2CC3C(c4ccccc4)CC(N4CCCCC4)(CC3c3ccccc3)C2)c2nnnn2C(C)(C)C)cc1 (mixture of isomers) [Compound 13A, rac-N-[(1R)-(1-tert-Butyl-1H-tetrazol-5-yl)(p-tolyl)methyl]-2-[(6R,9R)-6,9-diphenyl-1-(piperidin-1-yl)-3-azabicyclo[3.2.2]nonan-3-yl]ethan-1-amine]",5.72,6.35,7.75,6.48,2550,,,
6.44,"CN(C)C12CCN(CCN)C([C@@H](c3ccccc3)C1)[C@@H](c1ccccc1)C2 (racemic) [Compound 6, rac-(7R,8R)-2-[5-(Dimethylamino)-7,8-diphenyl-2-azabicyclo[3.2.2]nonan-2-yl]ethan-1-amine]",,,7.36,5.53,21500,59.7,,
6.74,"NCCN1CCC2(N3CCCCC3)C[C@H](c3ccccc3)C1[C@@H](c1ccccc1)C2 (racemic) [Compound 7, rac-(7R,8R)-2-[7,8-Diphenyl-5-(piperidin-1-yl)-2-azabicyclo[3.2.2]nonan-2-yl]ethan-1-amine]",,,8.66,5.71,16800,93.3,,
,"CC(C)(C)n1nnnc1C(NCCN1CC2C(c3ccccc3)CC(N3CCCCC3)(CC2c2ccccc2)C1)c1ccccc1 (racemic) [Compound 12B, rac-N-[(1R)-1-tert-Butyl-1H-tetrazol-5-yl])(phenyl)methyl]-2-[(6S,9S)-6,9-diphenyl-1-(piperidin-1-yl)-3-azabicyclo[3.2.2]nonan-3-yl]ethan-1-amine]",1.92,5.88,1.68,5.82,2560,,,
,"CC(C)(C)n1nnnc1CNCCN1CC2[C@H](c3ccccc3)CC(N3CCCCC3)(C[C@H]2c2ccccc2)C1 (racemic) [Compound 14, rac-(6R,9R)-N-[(1-tert-Butyl-1H-tetrazol-5-yl)methyl]-2-[6,9-diphenyl-1-(piperidin-1-yl)-3-azabicyclo[3.2.2]nonan-3-yl]ethan-1-amine]",8.76,5.71,14.17,5.92,17000,,,
,"CC(C)(C)n1nnnc1CN(CCN1CC2[C@H](c3ccccc3)CC(N3CCCCC3)(C[C@H]2c2ccccc2)C1)Cc1nnnn1C(C)(C)C (racemic) [Compound 15, rac-(6R,9R)-N,N-bis[(1-tert-Butyl-1H-tetrazol-5-yl)methyl]-2-[6,9-diphenyl-1-(piperidin-1-yl)-3-azabicyclo[3.2.2]nonan-3-yl]ethan-1-amine]",5.62,6.13,3.21,5.89,4170,,,
,"O=S(=O)(c1ccc(Cl)cc1)N1CCC2(N3CCCC3)C[C@H](c3ccccc3)C1[C@@H](c1ccccc1)C2 (racemic) [Compound 18, rac-(7R,8R)-2-(4-Chlorobenzenesulfonyl)-7,8-diphenyl-5-(pyrrolidin-1-yl)-2-azabicyclo[3.2.2]nonane]",10.4,6.22,5.28,5.92,6290,,,
,"Cc1ccc(S(=O)(=O)NCCN2CCC3(N4CCCCC4)C[C@H](c4ccccc4)C2[C@@H](c2ccccc2)C3)cc1 (racemic) [Compound 19, rac-(7R,8R)-4-Methyl-N-[2-(7,8-diphenyl-5-(piperidin-1-yl)-2-azabicyclo[3.2.2]nonan-2-yl)ethyl]benzenesulfonamide]",18.7,6.24,9.39,5.94,10800,,,
,"Cc1ccc(S(=O)(=O)NCCN2CCC3(N4CCCC4)C[C@H](c4ccccc4)C2[C@@H](c2ccccc2)C3)cc1 (racemic) [Compound 20, rac-(7R,8R)-4-Methyl-N-{2-[7,8-diphenyl-5-(pyrrolidin-1-yl)-2-azabicyclo[3.2.2]nonan-2-yl]ethyl}benzenesulfonamide]",14.7,6.31,11.0,6.19,7150,,,
,"Cc1ccc(C(NCCN2CC3C(c4ccccc4)CC(N4CCCCC4)(CC3c3ccccc3)C2)c2nnnn2C(C)(C)C)cc1 (stereo in doubt) [Compound 13B, rac-N-[(1R)-(1-tert-butyl-1H-tetrazol-5-yl)(p-tolyl)methyl]-2-[(6S,9S)-6,9-diphenyl-1-(piperidin-1-yl)-3-azabicyclo[3.2.2]nonan-3-yl]ethan-1-amine]",3.03,6.17,2.06,6.00,2060,,,
,"Nc1nc(N)nc(Nc2ccc([As]3SCC(CO)S3)cc2)n1 (centres unmarked) [MEL, melarsoprol, reference compound]",,,864,,,,8.05,7780
